Test results as given in patent US4221682A, “Tetrapeptides having analgesic activity” (American Home Products Corporation, priority 1979, dated 1980).
Read-outs that look alike come from different tables or passages of the source. Positions of bridges follow the written chain, without caps; N, C: chain ends. Non-standard residues stand in square brackets, D forms with d. Residues, ends and D or L forms follow the SMILES beside them. Chains are numbered I, II in the order given. NMeF = CN[C@@H](Cc1ccccc1)C(=O)O

What was measured:
[1] = tested on: male rats; experiment: rat-tail flick test of D'Amour and Smith, intravenous administration; format: in vivo; conditions: for Positive Responses/Total Possible Response: all time points
Method: The holders are situated so that a high intensity light beam will shine on the tip of the rats tail. The light beam intensity is adjusted so that normal rats respond by removing their tails from the light stimulus within from 3 to 8 seconds. The average of three time readings for removal of a rats tail from the light beam, taken 20 minutes apart serves as a pre-drug control. The rats are selected for use based upon control readings that agree within one second. The compounds of this invention are then administered intravenously and the test performed at 15, 30 and 60 minutes to determine the animals reaction time which is compared with the control average and tested for significance. The number of rats showing analgesia at each time period out of the total group for each dose administered is noted as a ratio and the number of positive responses observed is relative to the total number of challenges for each group of rats.

[2] = tested on: rats; conditions: cited from earlier work; for analgesia: injection in the brain ventricle in rats, fully reversible by naloxone
[3] = cited from earlier work; for activity when administered peripherally: peripheral administration
[4] = tested on: mice; conditions: central administration (Baxter et al.); cited from earlier work
[5] = central administration (Pert et al.); cited from earlier work
[6] = tested on: opiate receptor; conditions: brain homogenates; cited from earlier work
[7] = tested on: mouse vas deferens; conditions: cited from earlier work
[8] = tested on: guinea pig ileum; conditions: cited from earlier work
[9] = tested on: rats; conditions: peripheral (i.v.), rats (Bajusz et al.); cited from earlier work

Q: For `CN(C(=O)CNC(=O)[C@@H](CSSC[C@@H](NC(=O)[C@@H](N)Cc1ccc(O)cc1)C(=O)NCC(=O)N(C)[C@@H](Cc1ccccc1)C(N)=O)NC(=O)[C@@H](N)Cc1ccc(O)cc1)[C@@H](Cc1ccccc1)C(N)=O` [Example 2, L-Tyrosyl-D-Cysteinyl-Glycyl-N-Methyl-L-Phenylalanyl Amide Disulfide Acetate] (I: H-Y[dC]G[NMeF]-NH2 / II: H-Y[dC]G[NMeF]-NH2; disulfide I:2-II:2), which “Respiration normal (number of rats)” value ([1]; 1.0 mg/kg i.v.) is on record?
A: 5/5

Q: What about the “dead (number of rats)” value ([1]; 1.0 mg/kg i.v.) of the same compound?
A: 1/6

Q: And the “No. Analgesic/No. Tested” value ([1]; 1.0 mg/kg i.v., 15 minutes)?
A: 3/6

Q: And the “No. Analgesic/No. Tested” value ([1]; 1.0 mg/kg i.v., 30 minutes)?
A: 2/6

Q: What about the “No. Analgesic/No. Tested” value ([1]; 1.0 mg/kg i.v., 60 minutes) of the same compound?
A: 1/5

Q: What about the “Positive Responses/Total Possible Response” value ([1]; 1.0 mg/kg i.v.) of the same compound?
A: 6/17

Q: And the “Respiration very depressed (number of rats)” value ([1]; 5.0 mg/kg i.v.)?
A: 6/6

Q: What about the “dead (number of rats)” value ([1]; 5.0 mg/kg i.v.) of the same compound?
A: 0/6

Q: What about the “No. Analgesic/No. Tested” value ([1]; 5.0 mg/kg i.v., 15 minutes) of the same compound?
A: 6/6

Q: What about the “No. Analgesic/No. Tested” value ([1]; 5.0 mg/kg i.v., 30 minutes) of the same compound?
A: 5/6

Q: And the “No. Analgesic/No. Tested” value ([1]; 5.0 mg/kg i.v., 60 minutes)?
A: 5/6

Q: What about the “Positive Responses/Total Possible Response” value ([1]; 5.0 mg/kg i.v.) of the same compound?
A: 16/18

Q: Which “antinociceptive and behavioral effects” value ([2]; rats, central administration (Baxter et al.)) does the source give for H-Tyr-D-Ala-Gly-Phe-D-Leu-OH here?
A: exhibit antinociceptive and behavioral effects

Q: And the peripheral analgesic activity ([3]; peripheral administration (Wei et al.; Romer et al.))?
A: exhibit peripheral analgesic activity

Q: What about the “antinociceptive and behavioral effects” value [4] of the same compound?
A: exhibit antinociceptive and behavioral effects

Q: With H-Tyr-D-Ala-Gly-Phe-D-Met-NH2 as the compound, how does the analgesic activity ([2]; rats, centrally administered (Fredrickson)) read?
A: produced analgesic activity

Q: For H-Tyr-D-Ala-Gly-Phe-Met-NH2, which analgesia [5] is on record?
A: long lasting analgesic

Q: With “H-Tyr-Gly-Gly-Phe-Leu-OH [leucine-enkephalin]” as the compound, how does the analgesia [2] read?
A: induce a profound analgesia

Q: And the “activity when administered peripherally” value [3]?
A: inactive

Q: What about the “inhibition of stereospecific receptor binding of 3H-naloxone” value [6] of the same compound?
A: inhibit the stereospecific receptor binding

Q: What about the “block of electrically evoked contractions” value (from here on “block”) [7] of the same compound?
A: mimic the ability of morphine to block electrically evoked contractions

Q: What about the “block” value [8] of the same compound?
A: mimic the ability of morphine to block electrically evoked contractions

Q: With “H-Tyr-Gly-Gly-Phe-Met-OH [methionine-enkephalin]” as the compound, how does the analgesia [2] read?
A: induce a profound analgesia

Q: What about the “activity when administered peripherally” value [3] of the same compound?
A: inactive

Q: And the “inhibition of stereospecific receptor binding of 3H-naloxone” value [6]?
A: inhibit the stereospecific receptor binding

Q: And the “block” value [7]?
A: mimic the ability of morphine to block electrically evoked contractions

Q: What about the “block” value [8] of the same compound?
A: mimic the ability of morphine to block electrically evoked contractions

Q: For H-Y[dM]GFP-NH2, which analgesic activity [9] is on record?
A: peripheral (i.v.) analgesic activity
